From ChEMBL document CHEMBL5137081, “N-Heterocyclic 3-Pyridyl Carboxamide Inhibitors of DHODH for the Treatment of Acute Myelogenous Leukemia” (J Med Chem, 2022) come the findings set out here.

In data set [1] the target is Dihydroorotate dehydrogenase (quinone), mitochondrial (Homo sapiens, UniProt Q02127). Nature of the data set: Inhibition of His fused human DHODH expressed in Escherichia coli using DHO as substrate by DCIP absorbance based colorimetry assay.
A further data set has as its system MOLM-13. Nature of the data set: Antiproliferative activity against human MOLM-13 cells incubated for 72 hrs by CellTiter-Glo assay. Format: functional, cell-based. The note with it: MOLM-13, 72 h.
Data set [2] in a line: Solubility of compound at pH 7 by HPLC analysis. The class given is physicochemical. The note with it: buffer.
Data set [3] can be described thus: Metabolic stability in human liver microsome assessed as intrinsic clearance pretreated for 5 mins followed by NADPH addition and measured upto 60 mins by HPLC-MS/MS analysis. Format: ADME. As to conditions: microsomes, 1.083 h, time < 65 min. For orientation: Liver microsomes are a subcellular fraction often used to study metabolism.
Data set [4] in a line: Stability in human hepatocytes assessed as intrinsic clearance measured per 10^6 cells incubated upto 120 mins by LC-MS/MS analysis. The note with it: 2 h. Format: ADME, cell-based, Hepatocyte.
Another data set relates to MDR1. Kind of data set: Efflux ratio of apparent permeability across basolateral to apical side over apical to basolateral side in dog MDCK-MDR1 cells. The class given is ADME, cell-based, Canis lupus familiaris.

SMILES strings stand for the structures. Converted amounts (≈) assume the structure as drawn.

Sequence of Dihydroorotate dehydrogenase (quinone), mitochondrial (Q02127 whole entry, the tested form may be a part): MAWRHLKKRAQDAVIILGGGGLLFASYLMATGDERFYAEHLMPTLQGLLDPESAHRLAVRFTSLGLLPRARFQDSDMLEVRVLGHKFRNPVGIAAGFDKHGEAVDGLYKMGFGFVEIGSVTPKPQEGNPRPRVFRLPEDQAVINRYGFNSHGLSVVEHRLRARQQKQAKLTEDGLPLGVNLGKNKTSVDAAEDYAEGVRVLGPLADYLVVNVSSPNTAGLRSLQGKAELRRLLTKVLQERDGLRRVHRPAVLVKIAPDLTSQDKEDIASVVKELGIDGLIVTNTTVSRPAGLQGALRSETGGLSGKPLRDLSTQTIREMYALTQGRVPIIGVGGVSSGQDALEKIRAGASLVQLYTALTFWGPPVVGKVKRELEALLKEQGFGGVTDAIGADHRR

Broadly, the IC50 is the point on the concentration scale where inhibition reaches its midpoint. Low readings indicate higher potency, high ones lower potency. For orientation: solubility means how much of the substance goes into solution per volume. A low value points to little dissolved substance. Turning to `CCn1c(CO)nn(-c2nc(O[C@@H](C)C(F)(F)F)c(C(=O)Nc3c(C)ccnc3F)cc2F)c1=O`, the results for the IC50 (in data set [1]; in the data set with MOLM-13) were 2.4 nM and 5 nM, respectively. The solubility in data set [2] is 61 µM (≈ 30.6 µg/mL). In addition, the CLH in data set [3] stood at 14 µL/min/mg; in data set [4], 61 µL/min/1e6 cells.

For `CCn1c(CO)nn(-c2nc(O[C@@H](C)C(F)(F)F)c(C(=O)Nc3c(F)cncc3Cl)cc2F)c1=O`, the IC50 was determined as 2.3 nM in data set [1] and 3.6 nM with MOLM-13.

In the case of `CCn1c(CO)nn(-c2nc(O[C@@H](C)C(F)(F)F)c(C(=O)Nc3ccccc3F)cc2F)c1=O`, the values for the IC50 (in data set [1]; in the data set on MOLM-13) were 6.1 nM and 5 nM, respectively. The CLH in data set [3] is below 8 µL/min/mg.

Turning to `CCn1c(CO)nn(-c2nc(O[C@@H](C)C(F)(F)F)c(C(=O)Nc3c(Cl)ccnc3Cl)cc2F)c1=O`, the IC50 is 0.6 nM in data set [1] and 0.7 nM with MOLM-13. In data set [2], this compound registered a solubility of 381 µM (≈ 205 µg/mL). In addition, the results for the CLH in data set [3] and in data set [4] were 14 µL/min/mg and 381 µL/min/1e6 cells, respectively.

For the compound `CCn1c(CO)nn(-c2nc(OC3CC(F)(F)C3(F)F)c(C(=O)Nc3c(F)cccc3Cl)cc2F)c1=O` (stereo not drawn), the IC50 in data set [1] turned out to be 22 nM; in the data set on MOLM-13, 20 nM.

For the compound `CCn1c(CO)nn(-c2nc(O[C@@H](C)C(F)(F)F)c(C(=O)Nc3c(F)cnc(OC)c3Cl)cc2F)c1=O`, the results for the IC50 (in data set [1]; with MOLM-13) were 1.1 nM and 1.4 nM, respectively. Further, the solubility in data set [2] was below 4 µM. Moreover, the CLH in data set [3] was below 7.7 µL/min/mg.

Take `CCn1c(CO)nn(-c2nc(O[C@@H](C)C(F)(F)F)c(C(=O)Nc3cccnc3Cl)cc2F)c1=O`: the IC50 in data set [1] amounted to 2.8 nM; in the data set on MOLM-13 it was 6.5 nM. The solubility in data set [2] was below 4 µM. Besides, the CLH in data set [3] is below 8 µL/min/mg.

Take `CCn1c(CO)nn(-c2nc(O[C@@H](C)C(F)(F)F)c(C(=O)Nc3c(C)ccnc3C(F)F)cc2F)c1=O`: the IC50 in data set [1] stood at 2.4 nM; in the data set on MOLM-13, 4 nM. For the same compound, the solubility in data set [2] was above 400 µM. Further, the CLH in data set [3] is below 7.7 µL/min/mg; in data set [4], above 400 µL/min/1e6 cells.

As for `CCn1c(CO)nn(-c2nc(O[C@@H](C)C(F)(F)F)c(C(=O)Nc3ccc(C)nc3Cl)cc2F)c1=O`, the 50% inhibitory concentration (IC50) in data set [1] came out at 14 nM; in the data set with MOLM-13, 13 nM.

Turning to `CCn1c(CO)nn(-c2nc(O[C@@H](C)C(F)(F)F)c(C(=O)Nc3c(Cl)ccnc3OC)cc2F)c1=O`, the IC50 (in data set [1]; in the data set on MOLM-13) was 0.3 nM each time. The concentration in solution in data set [2] (solubility) was 51 µM (≈ 27.3 µg/mL). The CLH is 10 µL/min/mg in data set [3] and 51 µL/min/1e6 cells in data set [4].

Regarding `CCn1c(CO)nn(-c2nc(OC3CCOC3)c(C(=O)Nc3c(F)cccc3Cl)cc2F)c1=O` (racemic), the values for the IC50 (in data set [1]; in the data set on MOLM-13) were 32 nM and 25 nM, respectively.

A word on the efflux ratio: it is a quotient of directional permeabilities that is used to spot active efflux. `CCn1c(CO)nn(-c2nc(O[C@@H](C)C(F)(F)F)c(C(=O)Nc3c(F)cnc(OC)c3C#N)cc2F)c1=O`: the values for the 50% inhibitory concentration (IC50) (in data set [1]; with MOLM-13) were 16 nM and 1 nM, respectively. For the same compound, the efflux ratio in the data set on MDR1 is above 30.

In the case of `CCn1c(CO)nn(-c2nc(O[C@@H](C)C(F)(F)F)c(C(=O)Nc3c(C)cc(OC)nc3Cl)cc2F)c1=O`, the IC50 in data set [1] amounted to 0.8 nM; with MOLM-13 it was 3 nM. In addition, the efflux ratio with MDR1 was above 30.

For the compound `CCn1c(CO)nn(-c2nc(OC(C)C)c(C(=O)Nc3c(F)cccc3Cl)cc2F)c1=O`, the IC50 in data set [1] amounted to 0.5 nM; in the data set with MOLM-13, 0.2 nM. Further, the concentration in solution in data set [2] (solubility) came to 4 µM (≈ 1.87 µg/mL). Besides, in data set [3], the CLH is below 7.7 µL/min/mg.

For `CCn1c(CO)nn(-c2nc(SC(C)C)c(C(=O)Nc3c(F)cccc3Cl)cc2F)c1=O`, the IC50 in data set [1] amounted to 302 nM; in the data set with MOLM-13, 0.19 nM. Besides, in data set [3], the CLH was found to be 15 µL/min/mg.

Consider `CCn1c(CO)nn(-c2nc(O[C@@H](C)C(F)(F)F)c(C(=O)Nc3ccnc(OC)c3Cl)cc2F)c1=O`, for which the IC50 is 11 nM in data set [1] and 13 nM in the data set on MOLM-13. Also, the CLH in data set [3] is below 7.7 µL/min/mg.

Turning to `CCn1c(CO)nn(-c2nc(O[C@@H](C)C(F)(F)F)c(C(=O)Nc3ncccc3Cl)cc2F)c1=O`, the IC50 in data set [1] stood at 5.2 nM; in the data set on MOLM-13, 6.9 nM. The compound also yielded a solubility in data set [2] of 98 µM (≈ 49.5 µg/mL). For the same compound, in data set [3], the CLH came out at 9.1 µL/min/mg.

Consider `CCn1c(CO)nn(-c2nc(O[C@@H](C)C(F)(F)F)c(C(=O)Nc3cc(C)cnc3Cl)cc2F)c1=O`, for which the IC50 turned out to be 5.7 nM in data set [1] and 50 nM in the data set with MOLM-13.

With `CCn1c(CO)nn(-c2nc(O[C@@H](C)C(F)(F)F)c(C(=O)Nc3ccncc3Cl)cc2F)c1=O`, the IC50 in data set [1] is 23 nM; in the data set with MOLM-13 it was 61 nM. In addition, the solubility in data set [2] was below 4 µM. Moreover, the CLH in data set [3] was determined as 15 µL/min/mg.

Compound `CCC(C)Nc1nccc(-c2cnc3sc(C)cn3c2=O)n1` (stereo not drawn) returned an IC50 in data set [1] of 1400 nM.

In the case of `CCn1c(CO)nn(-c2nc(O[C@@H](C)C(F)(F)F)c(C(=O)Nc3c(Cl)ccnc3C)cc2F)c1=O`, the IC50 turned out to be 1.9 nM in data set [1] and 5.3 nM in the data set with MOLM-13. This compound also displayed a solubility in data set [2] above 400 µM. The CLH in data set [3] is below 7.7 µL/min/mg; in data set [4], above 400 µL/min/1e6 cells.

Regarding `CCn1c(CO)nn(-c2nc(O[C@@H](C)C(F)(F)F)c(C(=O)Nc3c(F)cccc3Cl)cc2F)c1=O`, the IC50 was 0.2 nM in data set [1] and 0.16 nM in the data set on MOLM-13. The compound further came in with a solubility in data set [2] below 4 µM. In addition, the CLH in data set [3] came to 10 µL/min/mg.

For `CCn1c(CO)nn(-c2nc(O[C@@H](C)C(F)(F)F)c(C(=O)Nc3cc(OC)ncc3C)cc2F)c1=O`, the IC50 in data set [1] came to 10 nM; in the data set on MOLM-13, 26 nM. Further, the efflux ratio with MDR1 came out at 17.

`CCn1c(CO)nn(-c2nc(NC(C)C)c(C(=O)Nc3c(F)cccc3Cl)cc2F)c1=O`: the IC50 in data set [1] stood at 3600 nM; with MOLM-13, 200 nM.

With `CCn1c(CO)nn(-c2nc(O[C@@H](C)C(F)(F)F)c(C(=O)Nc3c(C)cnc(OC)c3C)cc2F)c1=O`, the IC50 in data set [1] came to 0.56 nM; with MOLM-13, 2.1 nM. The compound further returned a solubility in data set [2] of 373 µM (≈ 197 µg/mL). In addition, the CLH in data set [3] was below 7.7 µL/min/mg. Besides, in the data set on MDR1, the efflux ratio is above 30.

`CCn1c(CO)nn(-c2nc(O[C@@H](C)C(F)(F)F)c(C(=O)Nc3cnccc3Cl)cc2F)c1=O`: the IC50 in data set [1] stood at 4.7 nM; in the data set with MOLM-13, 9.3 nM. Besides, in data set [3], the CLH amounted to 45 µL/min/mg.
